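Step 1: Grow cells in 96-well plates. Step 2: Expose to compound for 48 hours at 5 concentrations. Step 3: Interpolate endpoints linearly; if unreached, use highest concentration. Definition used: TGI = concentration required for complete inhibition of growth.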
Tests used:
Assay in all cases: DTP human tumour cell line panel, 48 h
HL-60(TB) leukemia = system: HL-60(TB) leukemia
SK-MEL-2 melanoma = system: SK-MEL-2 melanoma
SN12C renal = system: SN12C renal
MALME-3M melanoma = system: MALME-3M melanoma
NCI-H522 lung = system: NCI-H522 lung
ACHN renal = system: ACHN renal
KM12 colon = system: KM12 colon
SF-539 CNS = system: SF-539 CNS
U251 CNS = system: U251 CNS
M14 melanoma = system: M14 melanoma

Row | Structure (SMILES) | TGI (HL-60(TB) leukemia) | TGI (SK-MEL-2 melanoma) | TGI (SN12C renal) | TGI (MALME-3M melanoma) | TGI (NCI-H522 lung) | TGI (ACHN renal) | TGI (KM12 colon) | TGI (SF-539 CNS) | TGI (U251 CNS) | TGI (M14 melanoma)
1 | Cc1cnc2c(c1)C(=O)N(c1ccc([N+](=O)[O-])cc1)S2(=O)=O | > 100 µM | > 100 µM | > 100 µM | 63.4 µM | > 100 µM | > 100 µM | > 100 µM | > 100 µM | > 100 µM | > 100 µM
2 | NC(Cc1ccccc1)c1nn[nH]n1 (stereo not given) | > 100 µM | > 100 µM | > 100 µM | > 100 µM | > 100 µM | > 100 µM | > 100 µM | > 100 µM | > 100 µM | > 100 µM
3 | Cc1c2ccccc2c(C2C3C(=O)N(c4cccc5ccccc45)C(=O)C3ON2Cc2ccc(CC(N)=O)cc2)c2ccccc12 (stereo not given) | > 50 µM | 31.3 µM | > 50 µM | > 50 µM | > 50 µM | > 50 µM | > 50 µM | > 50 µM | > 50 µM | > 50 µM
4 | O=C(O)C1=CN(c2ccncc2)C(c2ccco2)=CC1c1ccccc1[N+](=O)[O-] (stereo not given) | > 100 µM | 34.3 µM | 29.1 µM | 26.4 µM | 25.3 µM | 3.59 µM | 3.4 µM | 10.3 µM | 24.2 µM | 23.4 µM
5 | C=CC(=O)NCNC(=O)C=C | > 100 µM | > 100 µM | > 100 µM | > 100 µM | > 100 µM | > 100 µM | > 100 µM | > 100 µM | > 100 µM | > 100 µM
6 | COCC12CCC(OC)C34C5CC6(O)C(OC)C=C(C5C6OC(=O)c5ccccc5)C(C(OC)C13)C4N(C)C2 (stereo not given) | > 100 µM | > 100 µM | > 100 µM | > 100 µM | > 100 µM | > 100 µM | > 100 µM | > 100 µM | > 100 µM | > 100 µM
7 | O=C(Oc1c(Br)cc(Br)cc1C(=O)Oc1ccccc1)C(=O)Oc1c(Br)cc(Br)cc1C(=O)Oc1ccccc1 | > 100 µM | 93.3 µM | 97.4 µM | 59.2 µM | 32.6 µM | > 100 µM | 84.1 µM | 51.8 µM | 40.6 µM | > 100 µM
8 | CCCn1c(=O)c2nn3c(=O)n(CCC)c(=O)c3nn2c1=O | > 100 µM | > 100 µM | > 100 µM | > 100 µM | > 100 µM | > 100 µM | > 100 µM | > 100 µM | > 100 µM | > 100 µM
9 | CSC1=C(C#N)C(=O)N(c2ccc(C)cc2)C(=O)C1C#N (stereo not given) | > 100 µM | > 100 µM | > 100 µM | > 100 µM | > 100 µM | > 100 µM | > 100 µM | > 100 µM | > 100 µM | > 100 µM
10 | COc1ccc(NS(=O)c2c(C)cc(C)cc2C)cc1 (stereo not given) | > 100 µM | > 100 µM | > 100 µM | 49 µM | > 100 µM | > 100 µM | 98.8 µM | 53.3 µM | > 100 µM | > 100 µM
11 | COc1ccc2c(c1)-c1nc(=O)n(CCCN(C)C)c3ccc([N+](=O)[O-])c(c13)N2 | 4.39 µM | 27.6 µM | 13.8 µM | 3.28 µM | 1.93 µM | 15 µM | 4.02 µM | 9.63 µM | 9.03 µM | 3.69 µM
12 | O=C(O)c1cccc(OCCOc2cccc(C(=O)O)c2[N+](=O)[O-])c1[N+](=O)[O-] | > 100 µM | > 100 µM | > 100 µM | > 100 µM | > 100 µM | > 100 µM | > 100 µM | > 100 µM | > 100 µM | > 100 µM
13 | COC(=O)[C@@H](OC(C)=O)[C@@H](OC(C)=O)c1nnc2ccc(Cl)nn12 | > 100 µM | > 100 µM | > 100 µM | > 100 µM | 95.3 µM | > 100 µM | > 100 µM | > 100 µM | > 100 µM | > 100 µM
14 | COc1ccc(-n2c(Cn3nnc(-c4cccnc4)n3)nn(C3OC(COC(=O)c4ccccc4)C(OC(=O)c4ccccc4)C3OC(=O)c3ccccc3)c2=S)cc1 (stereo not given) | > 100 µM | > 100 µM | > 100 µM | > 100 µM | > 100 µM | > 100 µM | > 100 µM | > 100 µM | > 100 µM | > 100 µM
15 | Cc1[nH]c2nc3c(ncn3COCCO)c(=O)n2c1C(c1ccccc1)(c1ccccc1)c1ccccc1 | 44.4 µM | 29.8 µM | 33 µM | 33.6 µM | 28.2 µM | 35.5 µM | 28.5 µM | 19.2 µM | 28 µM | 33.3 µM
